Reference: patent US9422293B2 (priority 2006, dated 2016)

Biological target: rat TRPV1 (Rattus norvegicus (Rat), UniProt O35433)
Details: read-out: Rat IC50
Experimental: Biological Testing: Functional Assay: Block of Capsaicin-Induced Ca^2+ Influx A. Human Assay
Cells were passaged frequently, every 3-5 days, to avoid overgrowth, depletion of essential medium components, or acidic medium exposure. Cells were passaged using a brief wash in 0.05% trypsin with 1 mM EDTA, followed by dissociation in divalent-free phosphate-buffered saline (Hyclone #SH30028.02). […] The assay buffer was composed of 130 mM NaCl, 2 mM KCl, 2 mM MgCl2, 10 mM HEPES, 5 mM glucose, and either 2 mM or 20 μM CaCl2. On the day of the experiment, the culture medium was replaced with 2 mM calcium assay buffer using an automated plate washer (ELx405; Biotek, VT). […] After loading the cells, the dye solution was replaced with 50 μL/well of 20 μM calcium assay buffer using the ELx405 plate washer. Test compounds (50 μL/well) were added to the plate and incubated for 30 min. […] The IC50 values were determined. […] The contents of the wells were mixed 3 times (40 μL mix volume) immediately after the additions were made. Concentration dependence of block was determined by exposing each well of cells in duplicate rows of a 96 well plate to a serial dilution of test compound. The concentration series usually started at 10 μM with a three-fold serial decrement in concentration. The magnitude of the capsaicin response was determined by measuring the change in fluo3 fluorescence before and 100 seconds after the addition of the agonist. Data were analyzed using a non-linear regression program (Origin; OriginLab, MA). IC50 values shown are the average (mean) of the results obtained.
The assay was performed as described above, using HEK293 cells transfected with rat TRPV1 (rTRPV1/HEK293). […] IC50 values shown are the average (mean) of the results obtained.

Sequence of rat TRPV1 (O35433 whole entry): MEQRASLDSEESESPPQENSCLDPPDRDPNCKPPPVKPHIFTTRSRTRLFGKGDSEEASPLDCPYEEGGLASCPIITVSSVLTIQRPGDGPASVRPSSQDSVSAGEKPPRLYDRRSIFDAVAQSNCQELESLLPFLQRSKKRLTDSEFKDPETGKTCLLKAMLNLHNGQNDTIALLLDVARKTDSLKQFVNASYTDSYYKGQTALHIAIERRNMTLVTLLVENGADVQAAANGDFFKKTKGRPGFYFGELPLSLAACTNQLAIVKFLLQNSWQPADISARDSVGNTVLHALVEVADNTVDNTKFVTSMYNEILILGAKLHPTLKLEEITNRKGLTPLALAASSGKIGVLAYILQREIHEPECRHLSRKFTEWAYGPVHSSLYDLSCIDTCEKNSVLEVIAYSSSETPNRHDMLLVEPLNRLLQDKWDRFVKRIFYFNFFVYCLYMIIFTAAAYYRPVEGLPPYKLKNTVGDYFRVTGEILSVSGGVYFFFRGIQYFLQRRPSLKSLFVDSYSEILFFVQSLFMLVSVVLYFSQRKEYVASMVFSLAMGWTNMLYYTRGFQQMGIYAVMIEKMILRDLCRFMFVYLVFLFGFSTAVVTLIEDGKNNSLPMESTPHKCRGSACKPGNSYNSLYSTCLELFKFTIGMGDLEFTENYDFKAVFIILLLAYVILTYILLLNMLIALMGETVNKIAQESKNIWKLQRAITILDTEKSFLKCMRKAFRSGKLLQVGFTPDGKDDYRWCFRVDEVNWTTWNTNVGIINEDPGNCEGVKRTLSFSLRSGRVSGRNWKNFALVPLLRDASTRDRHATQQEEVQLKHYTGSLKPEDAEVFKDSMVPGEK

Row | SMILES | IC50
1 | Cc1cc(C(F)(F)F)ccc1Nc1nc(OC(C)C2CCCCC2)nc2c1CCN(c1ncccc1C(F)(F)F)CC2 (stereo not drawn) [Example 309, 2-[(1-Cyclohexylethyl)oxy]-N-[2-methyl-4-(trifluoromethyl)phenyl]-7-[3-(trifluoromethyl)pyridin-2-yl]-6,7,8,9-tetrahydro-5H-pyrimido[4,5-d]azepin-4-amine] | 1420 nM
2 | Cc1cc(C(F)(F)F)ccc1Nc1nc(OC2CCCC2)nc2c1CCN(c1ncccc1C(F)(F)F)CC2 [Example 310, 2-(Cyclopentyloxy)-N-[2-methyl-4-(trifluoromethyl)phenyl]-7-[3-(trifluoromethyl)pyridin-2-yl]-6,7,8,9-tetrahydro-5H-pyrimido[4,5-d]azepin-4-amine] | 70 nM
3 | CN1CCC(Oc2nc3c(c(Nc4ccc(C(F)(F)F)cc4)n2)CCN(c2ncccc2C(F)(F)F)CC3)CC1 [Example 311, 2-[(1-Methylpiperidin-4-yl)oxy]-N-[4-(trifluoromethyl)phenyl]-7-[3-(trifluoromethyl)pyridin-2-yl]-6,7,8,9-tetrahydro-5H-pyrimido[4,5-d]azepin-4-amine] | > 20000 nM
4 | Cc1cc(C(F)(F)F)ccc1Nc1nc(OC2CCOCC2)nc2c1CCN(c1ncccc1C(F)(F)F)CC2 [Example 312, N-[2-Methyl-4-(trifluoromethyl)phenyl]-2-(tetrahydro-2H-pyran-4-yloxy)-7-[3-(trifluoromethyl)pyridin-2-yl]-6,7,8,9-tetrahydro-5H-pyrimido[4,5-d]azepin-4-amine] | 450 nM
5 | Cc1cc(C(F)(F)F)ccc1Nc1nc(OC2CCOC2)nc2c1CCN(c1ncccc1C(F)(F)F)CC2 (stereo not drawn) [Example 313, N-[2-Methyl-4-(trifluoromethyl)phenyl]-2-(tetrahydrofuran-3-yloxy)-7-[3-(trifluoromethyl)pyridin-2-yl]-6,7,8,9-tetrahydro-5H-pyrimido[4,5-d]azepin-4-amine] | 560 nM
6 | CC(C)N1CCC(Oc2nc3c(c(Nc4ccc(C(F)(F)F)cc4)n2)CCN(c2ncccc2C(F)(F)F)CC3)C1 (stereo not drawn) [Example 315, 2-{[1-(1-Methylethyl)pyrrolidin-3-yl]oxy}-N-[4-(trifluoromethyl)phenyl]-7-[3-(trifluoromethyl)pyridin-2-yl]-6,7,8,9-tetrahydro-5H-pyrimido[4,5-d]azepin-4-amine] | 5520 nM
7 | CC(Oc1nc2c(c(Nc3ccc4c(c3)N(C)CCC4)n1)CCN(c1ncccc1C(F)(F)F)CC2)C1CCCCC1 (stereo not drawn) [Example 316, 2-[(1-Cyclohexylethyl)oxy]-N-(1-methyl-1,2,3,4-tetrahydroquinolin-7-yl)-7-[3-(trifluoromethyl)pyridin-2-yl]-6,7,8,9-tetrahydro-5H-pyrimido[4,5-d]azepin-4-amine] | 1180 nM
8 | CC(Oc1nc2c(c(Nc3ccc(S(=O)(=O)C(F)(F)F)cc3)n1)CCN(c1ncccc1C(F)(F)F)CC2)C1CC1 (stereo not drawn) [Example 317, 2-[(1-Cyclopropylethyl)oxy]-7-[3-(trifluoromethyl)pyridin-2-yl]-N-{4-[(trifluoromethyl)sulfonyl]phenyl}-6,7,8,9-tetrahydro-5H-pyrimido[4,5-d]azepin-4-amine] | 610 nM
9 | CC(Oc1nc2c(c(Nc3ccc(S(=O)(=O)C(F)(F)F)cc3)n1)CCN(c1ncccc1C(F)(F)F)CC2)C1CCCCC1 (stereo not drawn) [Example 318, 2-[(1-Cyclohexylethyl)oxy]-7-[3-(trifluoromethyl)pyridin-2-yl]-N-{4-[(trifluoromethyl)sulfonyl]phenyl}-6,7,8,9-tetrahydro-5H-pyrimido[4,5-d]azepin-4-amine] | > 6670 nM
10 | O=S(=O)(c1ccc(Nc2nc(OC3CCCC3)nc3c2CCN(c2ncccc2C(F)(F)F)CC3)cc1)C(F)(F)F [Example 319, 2-(Cyclopentyloxy)-7-[3-(trifluoromethyl)pyridin-2-yl]-N-{4-[(trifluoromethyl)sulfonyl]phenyl}-6,7,8,9-tetrahydro-5H-pyrimido[4,5-d]azepin-4-amine] | 240 nM
11 | CC(Oc1nc2c(c(Nc3ccc(S(=O)(=O)N4CCCC4)cc3)n1)CCN(c1ncccc1C(F)(F)F)CC2)C1CCCCC1 (stereo not drawn) [Example 320, 2-[(1-Cyclohexylethyl)oxy]l-N-[4-(pyrrolidin-1-ylsulfonyl)phenyl]-7-[3-(trifluoromethyl)pyridin-2-yl]-6,7,8,9-tetrahydro-5H-pyrimido[4,5-d]azepin-4-amine] | 20 nM
12 | O=S(=O)(c1ccc(Nc2nc(OC3CCOCC3)nc3c2CCN(c2ncccc2C(F)(F)F)CC3)cc1)C(F)(F)F [Example 322, 2-(Tetrahydro-2H-pyran-4-yloxy)-7-[3-(trifluoromethyl)pyridin-2-yl]-N-{4-[(trifluoromethyl)sulfonyl]phenyl}-6,7,8,9-tetrahydro-5H-pyrimido[4,5-d]azepin-4-amine] | 10 nM
13 | CN1CCCc2ccc(Nc3nc(OC4CCOC4)nc4c3CCN(c3ncccc3C(F)(F)F)CC4)cc21 (stereo not drawn) [Example 323, N-(1-Methyl-1,2,3,4-tetrahydroquinolin-7-yl)-2-(tetrahydrofuran-3-yloxy)-7-[3-(trifluoromethyl)pyridin-2-yl]-6,7,8,9-tetrahydro-5H-pyrimido[4,5-d]azepin-4-amine] | 670 nM
14 | CN1CCCc2ccc(Nc3nc(OC4CCCC4)nc4c3CCN(c3ncccc3C(F)(F)F)CC4)cc21 [Example 324, 2-(Cyclopentyloxy)-N-(1-methyl-1,2,3,4-tetrahydroquinolin-7-yl)-7-[3-(trifluoromethyl)pyridin-2-yl]-6,7,8,9-tetrahydro-5H-pyrimido[4,5-d]azepin-4-amine] | 100 nM
15 | Cc1cc(C(F)(F)F)ccc1Nc1nc(OC(C)C2CC2)nc2c1CCN(c1ncccc1C(F)(F)F)CC2 (stereo not drawn) [Example 325, 2-[(1-Cyclopropylethyl)oxy]-N-[2-methyl-4-(trifluoromethyl)phenyl]-7-[3-(trifluoromethyl)pyridin-2-yl]-6,7,8,9-tetrahydro-5H-pyrimido[4,5-d]azepin-4-amine] | 300 nM
16 | Cc1cc(C(F)(F)F)ccc1Nc1nc(OC2CCCCC2)nc2c1CCN(c1ncccc1C(F)(F)F)CC2 [Example 326, 2-(Cyclohexyloxy)-N-[2-methyl-4-(trifluoromethyl)phenyl]-7-[3-(trifluoromethyl)pyridin-2-yl]-6,7,8,9-tetrahydro-5H-pyrimido[4,5-d]azepin-4-amine] | 600 nM
17 | CCCCOc1nc2c(c(Nc3ccc(C(F)(F)F)nc3)n1)CCN(c1ncccc1C(F)(F)F)CC2 [Example 327, 2-(Butyloxy)-7-[3-(trifluoromethyl)pyridin-2-yl]-N-[6-(trifluoromethyl)pyridin-3-yl]-6,7,8,9-tetrahydro-5H-pyrimido[4,5-d]azepin-4-amine] | 890 nM
18 | CN1CCCc2ccc(Nc3nc(OC4CCCCC4)nc4c3CCN(c3ncccc3C(F)(F)F)CC4)cc21 [Example 328, 2-(Cyclohexyloxy)-N-(1-methyl-1,2,3,4-tetrahydroquinolin-7-yl)-7-[3-(trifluoromethyl)pyridin-2-yl]-6,7,8,9-tetrahydro-5H-pyrimido[4,5-d]azepin-4-amine] | 250 nM
19 | CN1CCCc2ccc(Nc3nc(OC4CCOCC4)nc4c3CCN(c3ncccc3C(F)(F)F)CC4)cc21 [Example 329, N-(1-Methyl-1,2,3,4-tetrahydroquinolin-7-yl)-2-(tetrahydro-2H-pyran-4-yloxy)-7-[3-(trifluoromethyl)pyridin-2-yl]-6,7,8,9-tetrahydro-5H-pyrimido[4,5-d]azepin-4-amine] | 120 nM
20 | O=S(=O)(c1ccc(Nc2nc(OC3CCOC3)nc3c2CCN(c2ncccc2C(F)(F)F)CC3)cc1)C(F)(F)F (stereo not drawn) [Example 331, 2-(Tetrahydrofuran-3-yloxy)-7-[3-(trifluoromethyl)pyridin-2-yl]-N-{4-[(trifluoromethyl)sulfonyl]phenyl}-6,7,8,9-tetrahydro-5H-pyrimido[4,5-d]azepin-4-amine] | 500 nM
21 | CC(Oc1nc2c(c(Nc3ccc(C(F)(F)F)cc3)n1)CCN(c1ncccc1C(F)(F)F)CC2)C1CCCCC1 (stereo not drawn) [Example 332, 2-[(1-Cyclohexylethyl)oxy]l-N-[4-(trifluoromethyl)phenyl]-7-[3-(trifluoromethyl)pyridin-2-yl]-6,7,8,9-tetrahydro-5H-pyrimido[4,5-d]azepin-4-amine] | 2040 nM
22 | O=S(=O)(c1ccc(Nc2nc(OC3CCCC3)nc3c2CCN(c2ncccc2C(F)(F)F)CC3)cc1)N1CCCC1 [Example 333, 2-(Cyclopentyloxy)-N-[4-(pyrrolidin-1-ylsulfonyl)phenyl]-7-[3-(trifluoromethyl)pyridin-2-yl]-6,7,8,9-tetrahydro-5H-pyrimido[4,5-d]azepin-4-amine] | 40 nM
23 | O=S(=O)(c1ccc(Nc2nc(OC3CCOCC3)nc3c2CCN(c2ncccc2C(F)(F)F)CC3)cc1)N1CCCC1 [Example 335, N-[4-(Pyrrolidin-1-ylsulfonyl)phenyl]-2-(tetrahydro-2H-pyran-4-yloxy)-7-[3-(trifluoromethyl)pyridin-2-yl]-6,7,8,9-tetrahydro-5H-pyrimido[4,5-d]azepin-4-amine] | 150 nM
24 | FC(F)(F)c1ccc(Nc2nc(OC3CCCCCC3)nc3c2CCN(c2ncccc2C(F)(F)F)CC3)cc1 [Example 336, 2-(Cycloheptyloxy)-N-[4-(trifluoromethyl)phenyl]-7-[3-(trifluoromethyl)pyridin-2-yl]-6,7,8,9-tetrahydro-5H-pyrimido[4,5-d]azepin-4-amine] | 1640 nM
25 | FC(F)(F)c1ccc(Nc2nc(OC3CCCC3)nc3c2CCN(c2ncccc2C(F)(F)F)CC3)cc1 [Example 337, 2-(Cyclopentyloxy)-N-[4-(trifluoromethyl)phenyl]-7-[3-(trifluoromethyl)pyridin-2-yl]-6,7,8,9-tetrahydro-5H-pyrimido[4,5-d]azepin-4-amine] | 170 nM
26 | FC(F)(F)c1ccc(Nc2nc(OC3CCCCC3)nc3c2CCN(c2ncccc2C(F)(F)F)CC3)cc1 [Example 338, 2-(Cyclohexyloxy)-N-[4-(trifluoromethyl)phenyl]-7-[3-(trifluoromethyl)pyridin-2-yl]-6,7,8,9-tetrahydro-5H-pyrimido[4,5-d]azepin-4-amine] | 400 nM
27 | FC(F)(F)c1ccc(Nc2nc(OC3CCOCC3)nc3c2CCN(c2ncccc2C(F)(F)F)CC3)cc1 [Example 339, 2-(Tetrahydro-2H-pyran-4-yloxy)-N-[4-(trifluoromethyl)phenyl]-7-[3-(trifluoromethyl)pyridin-2-yl]-6,7,8,9-tetrahydro-5H-pyrimido[4,5-d]azepin-4-amine] | 190 nM
